Where two headings read alike, the source gives them in different places.
Tested on: Hyperlipidemic Hamster
Experiment: In Vivo Assay of Hypolipidemic Agents Using the Hyperlipidemic Hamster
Conditions: Mesocricetus auratus, po, 168 h, 7 days, percent change versus control, negative = lowering; for change in vivo at 50 mg/kg: 50 mg/kg once daily oral; for change in vivo at 3 mg/kg: 3 mg/kg once daily oral; for change in vivo at 10 mg/kg: 10 mg/kg once daily oral
Method: In Vivo Assay of Hypolipidemic Agents Using the Hyperlipidemic Hamster
Hamsters are separated into groups of six and given a controlled cholesterol diet (Purina Chow #5001 containing 0.5% cholesterol) for seven days. Diet consumption is monitored to determine dietary cholesterol exposure in the face of test compounds. The animals are dosed with the test compound once daily beginning with the initiation of diet. Dosing is by oral gavage of 0.2mL of corn oil alone (control group) or solution (or suspension) of test compound in corn oil. All animals roodbund or in poor physical condition are euthanized. After seven days, the animals are anesthetized by IM injection of ketamine and sacrificed by decapitation. Blood is collected into vacutainer tubes containing EDTA for plasma lipid analysis and the liver excised for tissue lipid analysis. Data is reported as percent reduction of lipid versus control.
Using the test procedures described above, the following in vitro and in vivo data were obtained for the preferred compounds, which are referred to in the following table by the corresponding example numbers. For the in vitro ACAT data, negative percent inhibition denotes apparent stimulation,while positive numbers denote inhibition. For the in vivo results, data is reported as percent change versus control, therefore, negative numbers indicate a positive lipid-lowering effect.

[1] = read-out: % Reduction (in vivo) Cholest. Esters
[2] = read-out: % Reduction (in vivo) Serum Cholest.

| SMILES | change in vivo at 50 mg/kg [1] [%] | change in vivo at 50 mg/kg [2] [%] | change in vivo at 3 mg/kg [1] [%] | change in vivo at 3 mg/kg [2] [%] | change in vivo at 10 mg/kg [1] [%] | change in vivo at 10 mg/kg [2] [%] |
| --- | --- | --- | --- | --- | --- | --- |
| COc1ccc([C@@H]2[C@@H](CCCc3ccccc3)C(=O)N2c2ccc(OC)nc2)cc1 (relative stereo) [Example 7F] | -26 | 0 |  |  |  |  |
| COC(=O)C=C(C)N[C@@H]1C(=O)N(c2ccccc2)[C@@H]1c1ccc(OC)cc1 (relative stereo) [Example 7J] | -27 | -21 |  |  |  |  |
| COc1ccc([C@@H]2[C@H](N(C)CCc3ccccc3)C(=O)N2c2ccccc2)cc1 (relative stereo) [Example 7K] | -32 | 0 |  |  |  |  |
| COc1ccc([C@@H]2[C@H](N3C(=O)c4ccccc4C3=O)C(=O)N2c2ccccc2)cc1 (relative stereo) [Example 7L] | 0 | 0 |  |  |  |  |
| COc1ccc(N2C(=O)[C@H](CCCc3ccccc3)[C@H]2c2ccc(OC(C)C)cc2)cc1 (relative stereo) [Example 7M] | -94 | -38 |  |  |  |  |
| CCOC(=O)[C@@H]1[C@H](CCCc2ccccc2)C(=O)N1c1ccc(OC)cc1 (relative stereo) [Example 7N] | 0 | -11 |  |  |  |  |
| COc1ccc([C@@H]2[C@@H](CCCc3ccccc3)C(=O)N2c2ccccc2)cn1 (relative stereo) [Example 7O] | -20 | -14 |  |  |  |  |
| CCCOc1ccc([C@@H]2[C@@H](CCCc3ccccc3)C(=O)N2c2ccc(OC)cc2)cc1 (relative stereo) [Example 7P] | -95 | -40 |  |  |  |  |
| COc1ccc(N2C(=O)[C@H](CCCc3ccccc3)[C@H]2c2ccc(OC)c(C)c2)cc1 (relative stereo) [Example 7Q] | 0 | -16 |  |  |  |  |
| COC(=O)c1ccc([C@@H]2[C@@H](CCCc3ccccc3)C(=O)N2c2ccccc2)cc1 (relative stereo) [Example 7R] | -80 | -35 |  |  |  |  |
| COc1ccc(N2C(=O)[C@H](CCCc3ccccc3)[C@H]2c2ccc(OC)c(F)c2)cc1 (relative stereo) [Example 7S] | -82 | -27 |  |  |  |  |
| COCOc1ccc([C@@H]2[C@@H](CCCc3ccccc3)C(=O)N2c2ccccc2)cc1 (relative stereo) [Example 7T] | -93 | -49 |  |  |  |  |
| COc1ccc(N2C(=O)[C@H](CCCc3ccccc3)[C@H]2c2ccc(N(C)C)cc2)cc1 (relative stereo) [Example 7U] | -60 | -29 |  |  |  |  |
| COc1ccc(C(=O)[C@@H]2[C@@H](CCCc3ccccc3)C(=O)N2c2ccc(OC)cc2)cc1 (relative stereo) [Example 7V] | 0 | 0 |  |  |  |  |
| COc1ccc(C(=O)[C@@H]2[C@H](CCCc3ccccc3)C(=O)N2c2ccc(OC)cc2)cc1 (relative stereo) [Example 7W] | 0 | 12 |  |  |  |  |
| COc1ccc(N2C(=O)[C@H](CCCc3ccccc3)[C@H]2c2ccc(OC)cc2OC)cc1 (relative stereo) [Example 7X] | -78 | -26 |  |  |  |  |
| CCOc1ccc([C@@H]2[C@@H](CCCc3ccccc3)C(=O)N2c2ccccc2)cc1 (relative stereo) [Example 7Y] | -94 | -53 | -55 | -22 | -79 | -27 |
| COc1ccc([C@@H]2[C@@H](CCCc3ccc([N+](=O)[O-])cc3)C(=O)N2c2ccc(OC)cc2)cc1 (relative stereo) [Example 7Z] | -39 | -21 |  |  |  |  |
